We go through 19 compounds from PubChem BioAssay AID248 (DTP/NCI, 2004).

Structures are written as SMILES. Values joined by “and” are separate entries in the source; they are usually repeats but may differ in a detail not shown here. Equal values may be shown once. Inconclusive results and toxic doses are left out.

In this assay the test system is L1210 leukemia ip in BDF1 mice, survival T/C. Nature of the assay: NCI In Vivo Anticancer Drug Screen. Data for tumor model L1210 Leukemia (intraperitoneal) in B6D2F1 (BDF1) mice. As to conditions: endpoint: mean survival time, higher = longer survival. The method in brief:
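Transplantable tumor model; survival measured in treated vs vehicle control mice. Value = treated/control.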

The mark [1] stands for this setting: dose: 100.0 mg/kg/injection, schedule: Q01DX009 (ip), vehicle: saline with Tween-80.
The mark [2] stands for this setting: dose: 100.0 mg/kg/injection, schedule: Q04DX003 (ip), vehicle: saline with Tween-80.
The mark [3] stands for this setting: dose: 200.0 mg/kg/injection, schedule: Q01DX009 (ip), vehicle: saline with Tween-80.
Setting [4] is: dose: 200.0 mg/kg/injection, schedule: Q04DX003 (ip), vehicle: saline with Tween-80.
[5] abbreviates: dose: 400.0 mg/kg/injection, schedule: Q04DX003 (ip), vehicle: saline with Tween-80.
Setting [6] is: dose: 100.0 mg/kg/injection, schedule: Q01DX001 (ip), vehicle: Klucel (hydroxypropylcellulose) (HPC).
Setting [7] is: dose: 200.0 mg/kg/injection, schedule: Q01DX001 (ip), vehicle: Klucel (hydroxypropylcellulose) (HPC).
[8] abbreviates: dose: 400.0 mg/kg/injection, schedule: Q01DX001 (ip), vehicle: Klucel (hydroxypropylcellulose) (HPC).
Where [9] appears, read: dose: 100.0 mg/kg/injection, schedule: Q04DX003 (ip), vehicle: Klucel (hydroxypropylcellulose) (HPC).
Setting [10] is: dose: 200.0 mg/kg/injection, schedule: Q04DX003 (ip), vehicle: Klucel (hydroxypropylcellulose) (HPC).
Setting [11] is: dose: 400.0 mg/kg/injection, schedule: Q04DX003 (ip), vehicle: Klucel (hydroxypropylcellulose) (HPC).
Setting [12] is: dose: 100.0 mg/kg/injection, schedule: Q01DX009 (ip), vehicle: saline.
[13] abbreviates: dose: 200.0 mg/kg/injection, schedule: Q01DX009 (ip), vehicle: saline.
Where [14] appears, read: dose: 50.0 mg/kg/injection, schedule: Q01DX009 (ip), vehicle: saline with Tween-80.
The mark [15] stands for this setting: dose: 100.0 mg/kg/injection, schedule: Q01DX009 (ip), vehicle: Klucel (hydroxypropylcellulose) (HPC).
[16] abbreviates: dose: 200.0 mg/kg/injection, schedule: Q01DX009 (ip), vehicle: Klucel (hydroxypropylcellulose) (HPC).
[17] abbreviates: dose: 400.0 mg/kg/injection, schedule: Q01DX009 (ip), vehicle: Klucel (hydroxypropylcellulose) (HPC).

As for `O=C(NC1CCOC1=O)OCc1ccccc1` (configuration not stated), the T/C under setting [1] was 94 % of control; the T/C under setting [2] was 95 % of control; the T/C under setting [3] is 95 % of control; the T/C under setting [4] is 91 % of control; the T/C (dose: 400.0 mg/kg/injection, schedule: Q01DX009 (ip), vehicle: saline with Tween-80) is 94 % of control; the T/C under setting [5] was 95 % of control.

Consider `COc1ccccc1-n1c(O)c(N=Nc2ccc(Cl)cc2)c(=O)n(-c2ccccc2OC)c1=S`, for which the T/C reads like this: under setting [6], 104 % of control; under setting [7], 110 % of control.

In the case of `Clc1ccc(/C=N\Nc2ccccc2)c(Cl)c1`, the T/C reads like this: under setting [6], 103 % of control; under setting [7], 101 % of control; under setting [8], 109 % of control.

Consider `O=NC12CCCCC1C(O)c1cc(Cl)cc(Cl)c1O2` (configuration not stated), for which the T/C by setting is: (dose: 100.0 mg/kg/injection, schedule: Q01DX009 (ip), vehicle: other) 119 % of control; under setting [9], 101 % of control; (dose: 200.0 mg/kg/injection, schedule: Q01DX009 (ip), vehicle: other) 95 % of control; under setting [10], 95 % of control; (dose: 400.0 mg/kg/injection, schedule: Q01DX009 (ip), vehicle: other) 89 % of control; under setting [11], 102 % of control.

For the compound `CN(C)CCOC(=O)/C=C/c1ccccc1`, the T/C reads like this: (dose: 50.0 mg/kg/injection, schedule: Q01DX009 (ip), vehicle: saline) 89 % of control; under setting [12], 96 % of control; under setting [13], 88 % of control.

Regarding `O=[N+]([O-])C=C([SH2+])[SH2+].O=[N+]([O-])C=C([SH2+])[SH2+].[Co+3].c1ccc(C[P+](c2ccccc2)(c2ccccc2)c2ccccc2)cc1`, the T/C is 93 % of control (dose: 75.0 mg/kg/injection, schedule: Q04DX003 (ip), vehicle: saline) and 93 % of control (dose: 150.0 mg/kg/injection, schedule: Q04DX003 (ip), vehicle: saline).

As to `C/C=C/C1CC2CC(C1C)C2(C)C` (configuration not stated), the T/C under setting [14] is 97 % of control, the T/C under setting [1] was 97 % of control and the T/C under setting [3] was 101 % of control.

Regarding `CCN(C(=O)c1ccc(Cl)cc1Cl)c1ccccc1C`, the T/C reads like this: under setting [15], 98 % of control; under setting [9], 97 % of control; under setting [16], 96 % of control; under setting [10], 108 % of control; under setting [17], 101 % of control; under setting [11], 98 % of control.

Consider `CC[n+]1cc(-c2ccc(NC(=O)/C=C\c3ccc(C(=O)Nc4ccc(-c5c[n+](CC)c(N)nc5N)cc4)cc3)cc2)c(N)nc1N`, for which the T/C is 156 % of control (dose: 2.7 mg/kg/injection, schedule: Q01DX015 (ip), vehicle: saline); 153 % of control (dose: 6.2 mg/kg/injection, schedule: Q01DX015 (ip), vehicle: saline); 152 % of control (dose: 9.3 mg/kg/injection, schedule: Q01DX015 (ip), vehicle: saline); 201 % of control (dose: 14.0 mg/kg/injection, schedule: Q01DX015 (ip), vehicle: saline); 207 % of control (dose: 22.0 mg/kg/injection, schedule: Q01DX015 (ip), vehicle: saline); 101 % of control (dose: 45.0 mg/kg/injection, schedule: Q01DX001 (ip), vehicle: saline). In addition, the T/C was 188 % of control (dose: 70.0 mg/kg/injection, schedule: Q01DX001 (ip), vehicle: saline); 225 % of control and 248 % of control (dose: 100.0 mg/kg/injection, schedule: Q01DX001 (ip), vehicle: saline); 107 % of control (dose: 150.0 mg/kg/injection, schedule: Q01DX001 (ip), vehicle: saline); 105 % of control (dose: 200.0 mg/kg/injection, schedule: Q01DX001 (ip), vehicle: saline); 121 % of control (dose: 155.0 micrograms/kg/injection, schedule: Q01DX009 (ip), vehicle: saline).

On to `O=C(Nc1ccc2c(c1)Cc1cc([N+](=O)[O-])ccc1-2)C(F)(F)F`, for which the T/C is 94 % of control under setting [2], 94 % of control under setting [4] and 94 % of control under setting [5].

Consider `CC=NCc1ccccc1`, for which the T/C is, setting by setting: (dose: 50.0 mg/kg/injection, schedule: Q01DX009 (sc), vehicle: olive oil, sesame oil, peanut oil) 98 % of control; (dose: 100.0 mg/kg/injection, schedule: Q01DX009 (sc), vehicle: olive oil, sesame oil, peanut oil) 114 % of control; (dose: 100.0 mg/kg/injection, schedule: Q04DX003 (sc), vehicle: olive oil, sesame oil, peanut oil) 105 % of control; (dose: 200.0 mg/kg/injection, schedule: Q04DX003 (sc), vehicle: olive oil, sesame oil, peanut oil) 98 % of control.

For `CCOC(=O)c1c(N)ssc1=S`, the T/C by setting is: under setting [12], 100 % of control; (dose: 100.0 mg/kg/injection, schedule: Q04DX003 (ip), vehicle: saline) 102 % of control; under setting [13], 105 % of control; (dose: 200.0 mg/kg/injection, schedule: Q04DX003 (ip), vehicle: saline) 105 % of control; (dose: 400.0 mg/kg/injection, schedule: Q01DX009 (ip), vehicle: saline) 105 % of control; (dose: 400.0 mg/kg/injection, schedule: Q04DX003 (ip), vehicle: saline) 107 % of control.

Take `CC(=O)Nc1ccc2c(c1)Cc1cccc(NC(C)=O)c1-2`: the T/C reads like this: (dose: 25.0 mg/kg/injection, schedule: Q01DX009 (ip), vehicle: Klucel (hydroxypropylcellulose) (HPC)) 95 % of control; (dose: 50.0 mg/kg/injection, schedule: Q01DX009 (ip), vehicle: Klucel (hydroxypropylcellulose) (HPC)) 103 % of control; under setting [15], 103 % of control.

Consider `CC(=O)OC1(c2ccc(Cl)cc2)OC(=O)C(c2ccccc2)=C1Cc1ccccc1` (configuration not stated), for which the T/C was 93 % of control (dose: 12.5 mg/kg/injection, schedule: Q01DX009 (ip), vehicle: saline with Tween-80); 86 % of control (dose: 25.0 mg/kg/injection, schedule: Q01DX009 (ip), vehicle: saline with Tween-80); 86 % of control under setting [14]; 95 % of control under setting [3].

As for `CC1=Nc2ccccc2SC(C)(C)C1`, the T/C runs as follows: (dose: 50.0 mg/kg/injection, schedule: Q01DX001 (ip), vehicle: Klucel (hydroxypropylcellulose) (HPC)) 98 % of control; under setting [6], 91 % of control; under setting [7], 109 % of control; under setting [8], 98 % of control.

Take `CNC(=S)NNc1ccccc1`: the T/C is, setting by setting: under setting [15], 110 % of control; under setting [9], 104 % of control; (dose: 100.0 mg/kg/injection, schedule: Q04DX003 (ip), vehicle: gum acacia) 98 % of control; under setting [16], 103 % of control; under setting [10], 104 % of control; (dose: 200.0 mg/kg/injection, schedule: Q04DX003 (ip), vehicle: gum acacia) 96 % of control. Besides, the T/C by setting is: under setting [17], 103 % of control; under setting [11], 103 % of control; (dose: 400.0 mg/kg/injection, schedule: Q04DX003 (ip), vehicle: gum acacia) 101 % of control.

With `O=[N+]([O-])c1ccc2c(c1)/C(=N\O)c1cc(Br)ccc1-2`, the T/C was 105 % of control (dose: 100.0 mg/kg/injection, schedule: Q01DX001 (ip), vehicle: carboxymethylcellulose (CMC)); 105 % of control (dose: 200.0 mg/kg/injection, schedule: Q01DX001 (ip), vehicle: carboxymethylcellulose (CMC)); 94 % of control (dose: 400.0 mg/kg/injection, schedule: Q01DX001 (ip), vehicle: carboxymethylcellulose (CMC)).

Regarding `CCOC(=O)C(C)Nc1ccccc1` (configuration not stated), the T/C reads like this: under setting [15], 100 % of control; under setting [9], 103 % of control; under setting [16], 104 % of control; under setting [10], 118 % of control; under setting [17], 98 % of control; under setting [11], 98 % of control.

In the case of `Cc1c2c(c(C)c3ccncc13)S(=O)(=O)c1ccccc1-2`, the T/C is, setting by setting: (dose: 75.0 mg/kg/injection, schedule: Q01DX001 (ip), vehicle: other) 95 % of control; (dose: 150.0 mg/kg/injection, schedule: Q01DX001 (ip), vehicle: other) 93 % of control; (dose: 300.0 mg/kg/injection, schedule: Q01DX001 (ip), vehicle: other) 93 % of control.
